Literature values, collected in patent publication US20260174683A1, “CHEWABLE COMPOSITION COMPRISING A GUMMY MATRIX AND COMPRISING MELATONIN, SODIUM ALGINATE, AND CALCIUM LACTATE” (S.I.I.T. S.R.L.-SERVIZIO INTERNAZIONALE IMBALLAGGI …, priority 2022, published 2026).

Structure (SMILES) | pH of 5% solution in water
CC(O)C(=O)[O-].CC(O)C(=O)[O-].[Mg+2] (centres unmarked) [Magnesium lactate, magnesium lactate] | 6.5-8.5
CC(O)C(=O)[O-].CC(O)C(=O)[O-].[Ca+2] (centres unmarked) [calcium lactate] | 6-8
